Data taken from patent US7465736B2, “Azole methylidene cyanide derivatives and their use as protein kinase modulators” (Laboratoires Serono S.A., priority 2002, dated 2008).

Tests used:
[1] = target: rat JNK3 (Rattus norvegicus, UniProt P49187); assay: JNK3 in vitro assay (33P incorporation into biotinylated GST-c-Jun, SPA beads); format: biochemical; details: in vitro potency on rat JNK3
Experimental: The compounds of the present invention are inhibitors of JNKs. The phosphorylation of c-jun by JNK2 or JNK3 may be determined by monitoring the incorporation of ^33P into c-jun following the protocol below. The inhibitory activity of the compounds according to formula I, towards c-jun phosphorylation through JNK, is determined by calculating phosphorylation activity in the presence or absence of compounds according to formula I.
JNK3 and/or -2 assays are performed in 96 well MTT plates: incubation of 0.5 μg of recombinant, pre-activated GST-JNK3 or GST-JNK2 with 1 μg of recombinant, biotinylated GST-c-Jun and 2 μM ^33γ-ATP (2 nCi/μl), in the presence or absence of compounds according to formula I and in a reaction volume of 50 μl containing 50 mM Tris-HCl, pH 8.0; 10 mM MgCl2; 1 mM Dithiothreitol, and 100 μM NaVO4. The test compound according to formula I is used in concentrations of 10, 3, 033, 0.1, 0.033, 0.01, 0.0033, 0.001 μM. The incubation is performed for 120 min. at R.T and stopped upon addition of 200 μl of a solution containing 250 μg of Streptavidine-coated SPA beads (Amersham, Inc.)*, 5 mM EDTA, 0.1% Triton X-100 and 50 μM ATP, in phosphate saline buffer.
After incubation for 60 minutes at RT, beads are sedimented by centrifugation at 1500×g for 5 minutes, resuspended in 200 μl of PBS containing 5 mM EDTA, 0.1% Triton X-100 and 50 μM ATP and the radioactivity measured in a scintillation β counter, following sedimentation of the beads as described above.

[2] = target: human GSK3 β (Homo sapiens, UniProt P49841); assay: GSK3β in vitro assay (33P incorporation into phospho GS2 peptide, scintillation counting); format: biochemical; details: in vitro potency on human GSK3 β
Sequence of human GSK3 β (P49841 whole entry): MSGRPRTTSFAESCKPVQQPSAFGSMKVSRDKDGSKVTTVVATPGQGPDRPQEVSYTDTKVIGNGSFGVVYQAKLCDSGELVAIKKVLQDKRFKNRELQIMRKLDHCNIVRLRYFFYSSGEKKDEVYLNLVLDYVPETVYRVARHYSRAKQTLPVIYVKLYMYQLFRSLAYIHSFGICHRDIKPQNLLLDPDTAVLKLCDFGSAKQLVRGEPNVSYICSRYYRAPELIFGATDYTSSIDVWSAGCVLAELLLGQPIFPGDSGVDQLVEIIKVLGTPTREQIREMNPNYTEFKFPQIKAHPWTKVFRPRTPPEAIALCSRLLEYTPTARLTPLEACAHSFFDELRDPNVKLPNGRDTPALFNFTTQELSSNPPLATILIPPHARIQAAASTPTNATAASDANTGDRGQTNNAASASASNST
Experimental: GSK3β Assay (see Naerum et al., Bioorg. Med. Chem. Lett 12 p. 1525-1528 (2002))
In a final reaction volume of 25 μl, the protein kinase GSK3β (h) (5-10 mU) is incubated with 8 mM MOPS at a pH of 7.0, in 0.2 mM EDTA, as well as 20 μM of the peptide […](p)EDEEE (SEQ ID NO: 1; a phosphor GS2 peptide being the GSK3 substrate in this assay), 10 mM Mg Acetate and [γ-^33P-ATP] (Specific activity approx. 500 cpm/pmol, concentration as required). The reaction is initiated by the addition of Mg^2+[γ-^33P-ATP]. The test compound according to formula I is used in concentrations of 100, 25, 5, 1.25, 0.315, 0.078, 0.0195, 0.0049, 0.0012, 0.00031 μM. After incubations for 40 minutes at room temperature, the reaction is stopped by the addition of 5 μl of a 3% phosphoric acid solution. 10 μl of the reaction is then spotted onto a P30 filtermat and washed three times for 5 minutes in 50 mM phosphoric acid and once in methanol prior to drying and the degree of phosphorylation of the substrate is determined by scintillation counting.

Sequence of rat JNK3 (P49187 whole entry): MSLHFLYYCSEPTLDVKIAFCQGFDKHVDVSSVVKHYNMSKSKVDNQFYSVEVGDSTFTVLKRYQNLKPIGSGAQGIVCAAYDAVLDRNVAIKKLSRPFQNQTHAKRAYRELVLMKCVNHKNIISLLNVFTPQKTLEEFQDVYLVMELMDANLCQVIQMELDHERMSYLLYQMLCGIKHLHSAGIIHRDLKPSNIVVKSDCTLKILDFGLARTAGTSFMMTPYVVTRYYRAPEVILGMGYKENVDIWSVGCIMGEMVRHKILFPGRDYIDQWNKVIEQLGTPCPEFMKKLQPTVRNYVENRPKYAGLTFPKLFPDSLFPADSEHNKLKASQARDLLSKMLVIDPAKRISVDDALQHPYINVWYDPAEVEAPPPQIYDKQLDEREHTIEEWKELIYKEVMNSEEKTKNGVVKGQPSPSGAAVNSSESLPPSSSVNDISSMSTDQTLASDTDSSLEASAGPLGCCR

IC50 [1] [µM]	IC50 [2] [µM]	Compound
< 10	< 10	N#C/C(=C1\NC(C(=O)O)=CS1)c1ccnc(NCCCN2CCCC2=O)n1 [2-[cyano(2-{[3-(2-oxopyrrolidin-1-yl)propyl]amino}pyrimidin-4-yl)methylene]-2,3-dihydro-1,3-thiazole-4-carboxylic acid]
< 10	< 10	CCC1=CS/C(=C(/C#N)c2ccnc(NCCc3ccc(S(N)(=O)=O)cc3)n2)N1 [4-[2-({4-[cyano(4-ethyl-1,3-thiazol-2(3H)-ylidene)methyl]pyrimidin-2-yl}amino)ethyl]benzenesulfonamide]
< 10	–	N#C/C(=C1\NC(c2ccccc2)=CS1)c1ccnc(NCCNc2ccc(C#N)cn2)n1 [6-{[2-({4-[cyano(4-phenyl-1,3-thiazol-2(3H)-ylidene)methyl]pyrimidin-2-yl}amino)ethyl]amino}nicotinonitrile]
–	< 10	CC1=CS/C(=C(/C#N)c2ccnc(N3CCC(Nc4ncccn4)CC3)n2)N1 [(4-methyl-1,3-thiazol-2(3H)-ylidene){2-[4-(pyrimidin-2-ylamino)piperidin-1-yl]pyrimidin-4-yl}acetonitrile]
–	< 10	CC1=CS/C(=C(/C#N)c2cc(NCc3ccco3)ncn2)N1 [{6-[(2-furylmethyl)amino]pyrimidin-4-yl}(4-methyl-1,3-thiazol-2(3H)-ylidene)acetonitrile]

Further lines, the compound ahead of its results:

Compound	IC50 [1] [µM]	IC50 [2] [µM]
CCC1=CS/C(=C(/C#N)c2ccnc(NC3CCN(S(C)(=O)=O)CC3)n2)N1	< 10	–
N#C/C(=C1\NC(c2ccccc2Cl)=CS1)c1ccnc(NC2CC2)n1 [[4-(2-chlorophenyl)-1,3-thiazol-2(3H)-ylidene][2-(cyclopropylamino)pyrimidin-4-yl]acetonitrile]	–	< 10
CN(C)c1nc(/C(C#N)=C2/NC(c3ccccc3)=CS2)nc(N2CCCC3CCCCC32)n1 (centres unmarked) [[4-(dimethylamino)-6-(octahydroquinolin-1(2H)-yl)-1,3,5-triazin-2-yl](4-phenyl-1,3-thiazol-2(3H)-ylidene)acetonitrile]	–	< 10
CC1=CS/C(=C(/C#N)c2cc(N(C)c3ccccc3)nc(NCCc3cccnc3)n2)N1 [{6-[methyl(phenyl)amino]-2-[(2-pyridin-3-ylethyl)amino]pyrimidin-4-yl}(4-methyl-1,3-thiazol-2(3H)-ylidene)acetonitrile]	–	< 10
